How the values were obtained:
[1] = Inhibition of KDR (unknown origin) expressed in […] cells assessed as reduction in cell viability incubated for 48 hrs by celltiter glo luminescence cell viability assay
[2] = Inhibition of RET (unknown origin) expressed in […] cells assessed as reduction in cell viability incubated for 48 hrs by celltiter glo luminescence cell viability assay

## CN(C)CCCNc1ccn2ncc(-c3ccc4c(c3)OCO4)c2n1
[1]
  IC50: 9 µM
[2]
  IC50: 4 µM

From BindingDB's records for doi:10.1021/acsmedchemlett.9b00615 (University of Manchester, 2020)
